Common to all, as to test: NCI-60 cell line screen, 48 h
For experiment [1], the system named is NCI-H226.
Experiment [2] deals with T47D.
In experiment [3] the test system is U-251.
Experiment [4] relates to SK-MEL-5.
Experiment [5] relates to TK-10.
The test system of experiment [6] is OVCAR-4.
Experiment [7] has as its system MDA-N.
Experiment [8] concerns Malme-3M.
Experiment [9] relates to NCI-H460.
The test system of experiment [10] is ACHN.
Experiment [11] concerns SK-OV-3.
In experiment [12] the test system is RPMI-8226.
Experiment [13] has as its system HT-29.
Experiment [14] deals with SNB-19.
Experiment [15] has as its system EKVX.
For experiment [16], the system named is OVCAR-3.
The test system of experiment [17] is HOP-62.
In experiment [18] the test system is SN12C.
Experiment [19] deals with CAKI-1.

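Method: 48-hour compound exposure of cells in 96-well plates, five concentrations, linear interpolation of endpoints. GI50 = concentration required for 50% inhibition of growth.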 The source made the active and inactive calls. Rule as the data show it: active = GI50 up to about 1.1 µM and inactive = higher.

For the molecule `N=c1c2c(=S)n(-c3ccccc3)c(=S)n(-c3ccccc3)c2nc(SCCN2CCCC2)n1-c1ccccc1`, the GI50 in experiment [1] is 7.59 µM (inactive); in experiment [2] it was 2.8 µM (inactive); in experiment [3] it was 2.52 µM (inactive); in experiment [4], 3.27 µM (inactive); in experiment [5], 1.59 µM (inactive); in experiment [6] it was 3 µM (inactive). The GI50 is 2.05 µM (inactive) in experiment [7]; 2.17 µM (inactive) in [8]; 1.72 µM (inactive) in experiment [9]; 1.77 µM (inactive) in [10]; 12.6 µM (inactive) in experiment [11]; 0.341 µM (active) in experiment [12]. Besides, the GI50 in [13] was 1.81 µM (inactive); in experiment [14], 15.2 µM (inactive); in experiment [15] it was 2.49 µM (inactive); in [16] it was 1.68 µM (inactive); in experiment [17], 3.4 µM (inactive); in experiment [18] it was 1.86 µM (inactive). For the same molecule, in experiment [19], the GI50 was 1.56 µM (inactive).
For `CCC1NC(=O)C(NC(=O)c2ncccc2O)C(C)OC(=O)C(c2ccccc2)NC(=O)C2CC(=O)CCN2C(=O)C(Cc2ccccc2)N(C)C(=O)C2CCCN2C1=O` (stereo not given), the GI50 in experiment [1] was > 100 µM (inactive); in experiment [2], > 100 µM (inactive); in experiment [3], > 100 µM (inactive); in [4], > 100 µM (inactive); in [5], > 100 µM (inactive); in [6], 57.1 µM (inactive). Moreover, the GI50 in experiment [7], in experiment [8], in experiment [9], in [10], in experiment [11] and in experiment [12] was > 100 µM (inactive) throughout. For the same molecule, the GI50 in experiment [13], in experiment [14], in experiment [16], in [17], in experiment [18] and in experiment [19] was > 100 µM (inactive) each time.
Turning to `O=C(O)c1ccccc1.[Ag]`, the GI50 was > 100 µM (inactive) in [1]; 2.46 µM (inactive) in experiment [2]; 18.5 µM (inactive) in experiment [3]; 4.73 µM (inactive) in [4]; 7.11 µM (inactive) in experiment [5]; 14.7 µM (inactive) in experiment [6]. The GI50 was 7.91 µM (inactive) in [7]; 1.7 µM (inactive) in experiment [8]; 11.1 µM (inactive) in experiment [9]; 6.47 µM (inactive) in [10]; 17.4 µM (inactive) in [11]; 2.23 µM (inactive) in [12]. In addition, the GI50 in experiment [13] is 20 µM (inactive); in experiment [14] it was 39.4 µM (inactive); in [15], 26.6 µM (inactive); in [16], 12.9 µM (inactive); in experiment [17] it was 21.3 µM (inactive); in [18], 23 µM (inactive). Besides, the GI50 in experiment [19] was 5.5 µM (inactive).
Regarding `CN(NC(=O)/C(=C/C=C/c1ccccc1)NC(=O)c1ccccc1)C1=C(Cl)C(=O)[N+](c2ccccc2)=CC1`, the GI50 is 17.9 µM (inactive) in experiment [1]; 15.7 µM (inactive) in [2]; 19.8 µM (inactive) in [3]; 14.4 µM (inactive) in [4]; 55.2 µM (inactive) in experiment [5]; 22.4 µM (inactive) in experiment [6]. Moreover, the GI50 in experiment [7] is 18.2 µM (inactive); in experiment [8], 37.9 µM (inactive); in experiment [9], 37.6 µM (inactive); in [10], 26.7 µM (inactive); in [11], > 100 µM (inactive); in [12] it was 23.9 µM (inactive). For the same molecule, the GI50 in [13] is 29.2 µM (inactive); in experiment [14], 25.4 µM (inactive); in experiment [15], 35.8 µM (inactive); in experiment [16], 20.8 µM (inactive); in experiment [17], 21.7 µM (inactive); in experiment [18], 24.8 µM (inactive). For the same molecule, the GI50 in [19] is 35.4 µM (inactive).
`Cc1ccc(CC(Cc2ccc(C)cc2C(=O)O)C(=O)O)cc1` (stereo not given): the GI50 in [1], in [2], in experiment [3], in [4], in experiment [5] and in experiment [6] was > 100 µM (inactive) throughout. Besides, the GI50 in experiment [7], in [8], in experiment [9], in experiment [10], in experiment [11] and in experiment [12] was > 100 µM (inactive) each time. Further, the GI50 in experiment [13], in [14], in experiment [15], in experiment [16], in [17] and in experiment [18] was > 100 µM (inactive) in each case. The GI50 in [19] was > 100 µM (inactive).
Take `COc1ccc(-c2cc(-c3ccccc3)nc(N)c2-c2ccc3ccccc3c2)cc1`: the GI50 in experiment [1] is 1.5 µM (inactive); in experiment [2], 1.69 µM (inactive); in [3], 1.95 µM (inactive); in experiment [4], 1.77 µM (inactive); in experiment [5], 3.15 µM (inactive); in [6], 0.979 µM (active). Further, the GI50 in experiment [7] is 1.6 µM (inactive); in experiment [8], 1.25 µM (inactive); in experiment [9], 1.52 µM (inactive); in [10], 2.05 µM (inactive); in experiment [11] it was 3.84 µM (inactive); in experiment [12] it was 2.13 µM (inactive). Moreover, the GI50 in [13] was 1 µM (active); in experiment [14], 1.18 µM (inactive); in [15], 1.83 µM (inactive); in experiment [16], 2.47 µM (inactive); in experiment [17] it was 2.3 µM (inactive); in experiment [18] it was 1.86 µM (inactive). In addition, the GI50 in experiment [19] was 3.46 µM (inactive).
As to `O=C1CCC(CCc2nc3ccccc3[nH]2)(c2ccccc2)C(=O)N1` (stereo not given), the GI50 in experiment [1], in experiment [2], in [3], in experiment [4], in [5] and in [6] was > 100 µM (inactive) throughout. Moreover, the GI50 in experiment [7], in [8], in experiment [9], in experiment [10], in experiment [11] and in [12] was > 100 µM (inactive) throughout. The GI50 in experiment [13] is > 100 µM (inactive); in experiment [14], > 100 µM (inactive); in [15] it was 62.4 µM (inactive); in experiment [16], > 100 µM (inactive); in experiment [17], > 100 µM (inactive); in experiment [18], > 100 µM (inactive). In addition, the GI50 in experiment [19] is > 100 µM (inactive).
As to `CN1CC[N+](C)=C1c1ccccc1`, the GI50 in [1], in experiment [2], in experiment [3], in experiment [4], in experiment [5] and in experiment [6] was > 100 µM (inactive) in each case. Moreover, the GI50 in experiment [7], in experiment [8], in [9], in [10], in [11] and in [12] was > 100 µM (inactive) in each case. For the same molecule, the GI50 in experiment [13], in experiment [14], in experiment [15], in experiment [16], in experiment [17] and in experiment [18] was > 100 µM (inactive) each time. Further, the GI50 in [19] was > 100 µM (inactive).
Consider `O=CNC(Cc1c[nH]cn1)C(=O)O` (stereo not given), for which the GI50 in experiment [1], in [2], in experiment [3], in experiment [4], in experiment [5] and in [6] was > 100 µM (inactive) in each case. In addition, the GI50 in experiment [7], in experiment [8], in [9], in experiment [10], in experiment [11] and in experiment [12] was > 100 µM (inactive) throughout. Further, the GI50 in experiment [13], in experiment [14], in [15], in experiment [16], in experiment [17] and in [18] was > 100 µM (inactive) each time. For the same molecule, the GI50 in experiment [19] is > 100 µM (inactive).
For the molecule `CC(=O)c1c(=O)n(-c2ccc(C)cc2)c(O)c2c(N)n[nH]c12`, the GI50 in [1], in experiment [2], in [3], in [4], in experiment [5] and in [6] was > 100 µM (inactive) in each case. The GI50 in experiment [7], in experiment [8], in [9], in experiment [11], in experiment [12] and in experiment [13] was > 100 µM (inactive) each time. Further, the GI50 in experiment [14], in [15], in [16], in experiment [18] and in experiment [19] was > 100 µM (inactive) each time.
With `O=[N+]([O-])c1ccc(-c2ccc([C@H]3CC(c4cc(F)c(Cl)cc4Cl)=NN3)o2)cc1`, the GI50 in [1] was 21.9 µM (inactive); in experiment [2] it was 5.48 µM (inactive); in experiment [4], 7.83 µM (inactive); in experiment [5], 31.8 µM (inactive); in [6] it was 40.2 µM (inactive); in experiment [7] it was 36.1 µM (inactive). Further, the GI50 was 19.2 µM (inactive) in experiment [8]; 0.435 µM (active) in experiment [9]; 32.1 µM (inactive) in [10]; 39.2 µM (inactive) in experiment [11]; 20.9 µM (inactive) in experiment [12]; 37.4 µM (inactive) in experiment [13]. Besides, the GI50 in experiment [14] was > 100 µM (inactive); in [15] it was > 100 µM (inactive); in [16] it was 45.2 µM (inactive); in [17] it was 17 µM (inactive); in [18], 24.3 µM (inactive); in experiment [19] it was 25.9 µM (inactive).
